Results on 1 substance are retold here after patent US12325744B2, “Methods for reducing post-operative cognitive dysfunction (POCD)” (The Kennedy Trust for Rheumatology Research, priority 2010, dated 2025).

Entries after “also recorded” stand apart in the source; their conditions may differ.

One test deals with C57-BL6 mice. The experiment in a line: Delay fear conditioning, auditory-cued test after tibial surgery. The test is classed as in vivo. Particulars: wild type mice, surgery with IL-1Ra pre-treatment. On the procedure:
Fear conditioning tests. Mice were conditioned 30 minutes or 3 days prior to intervention by training with two cycles of tone and foot-shock pairings. In delay fear conditioning a foot-shock was administered during the last 2 seconds of each 20 seconds-lasting tone.
In trace fear conditioning, the foot-shock onset, lasting 2 seconds as in the previous paradigm, followed a 20-second gap after each tone termination. Three days after conditioning, mice were placed back in the original conditioning chamber for 270 seconds, where no tone or shock were presented, to assess recall of contextual fear memory. After 3 h mice were placed in a novel environment (different context from training) to test for auditory-cued memory. Following an initial baseline period of 135 seconds during which freezing was scored in absence of noise, the auditory cue was presented for the final 135 seconds of the test, and freezing was again recorded. (For further details please refer to supplemental methods).
The behavioral study was conducted using a conditioning chamber (Med. Associates Inc., St. Albans, VT, USA). The back- and the side-walls of the chamber were made of aluminium, whereas the front door and the ceiling were of transparent Plexiglas. The floor of the chamber consisted of 36 stainless steel rods (1 mm diameter) spaced 0.5 cm apart (center-to-center). […]

The test system of a further test is IL-1β. The experiment in a line: Hippocampal IL-1β by ELISA after tibial surgery. It is filed as in vivo. Particulars: wild type mice, 6 h (minocycline, enrofloxacin) or 24 h (IL-1Ra) after surgery. On the procedure:
IL-6, TNF-α and IL-1β were measured by ELISA^19 (Biosource, CA; Bender Medsystem, CA, respectively). Hippocampal IL-1β was measured by ELISA (Bender Medsystem, CA), as previously described^20. To confirm reliability of dilution linearity and spike recovery cytokine measurement were also performed in mice in which inflammation was induced with i.p. LPS (0111:B4, Invivogen, CA). (For further details please refer to supplemental methods).
Under terminal anesthesia with pentobarbital, each mouse was euthanized and the brain quickly removed following decapitation. The hippocampus was dissected under microscopy on a frosted glass plate placed on top of crushed ice, then snap frozen and stored at −80° C. until processing. Each hippocampus was added to Iscove's culture medium containing 5% fetal calf serum (FCS) and a cocktail of enzyme inhibitors (in mM: 100 amino-n-caproic acid, 10 EDTA, 5 benzamidine-HCl, and 0.2 phenylmethylsulfonyl fluoride). […] IL-1β was measured in the supernatant from hippocampal extracts, which were appropriately diluted prior to measurement to fall on the linear portion of the sigmoid curve, using a commercially available ELISA kit (Bender Medsystem, CA). […]
Cytokine analyses: Systemic and hippocampal IL-1β was measured by ELISA (Bender Medsystem, CA; 1.2 pg/ml of sensitivity), as previously described (12).
In general terms: ELISA stands for enzyme-linked immunosorbent assay.

As for “IL-1Ra: IL-1 receptor antagonist (Amgen, Anakinra)”, the “Freezing in the auditory-cued test after delay fear conditioning” value with C57-BL6 mice was “showed no difference; also recorded: There was no difference between the groups”. In the test on IL-1β, the “Hippocampal IL-1β expression after surgery, effect of treatment” value is recorded as “did not increase hippocampal microgliosis (FIG. 6, A-B-C) or expression of IL-1β; also recorded: Hippocampal IL-1β did not significantly increase”.
